According to patent publication US5047402A, “Cyclic amides as medicaments” (ICI Americas Inc., priority 1989, dated 1991):

Target: T1, LTD4 /E4 receptors (Cavia porcellus, UniProt Q2NNR5)
T1 construct: membrane fractions, containing the LTD4 /E4 receptors, are prepared from guinea-pig lung parenchyma; from tissue; host or cells: guinea-pig lung parenchyma membrane fractions
T1 sequence (Q2NNR5 1-340): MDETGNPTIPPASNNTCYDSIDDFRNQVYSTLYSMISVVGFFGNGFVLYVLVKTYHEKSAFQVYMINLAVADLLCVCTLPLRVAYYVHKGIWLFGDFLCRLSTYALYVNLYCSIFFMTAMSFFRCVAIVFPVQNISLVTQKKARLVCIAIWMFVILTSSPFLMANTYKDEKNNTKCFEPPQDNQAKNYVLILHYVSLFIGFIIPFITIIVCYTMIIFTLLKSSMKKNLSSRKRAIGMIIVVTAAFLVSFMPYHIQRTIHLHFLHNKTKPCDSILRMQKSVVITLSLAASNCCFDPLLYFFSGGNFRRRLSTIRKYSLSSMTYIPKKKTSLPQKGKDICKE
Assay: receptor-ligand binding assay with 3H-LTD4 on guinea-pig lung parenchyma membrane fractions
Details: 1nM 3H-LTD4, 30 minutes at 22° C., Ki calculated from IC50 by the Cheng-Prusoff equation
Procedure: According to this procedure, membrane fractions, containing the LTD4 /E4 receptors, are prepared from guinea-pig lung parenchyma and incubated for 30 minutes at 22° C. with 1nM ^3 H-LTD4 in the absence or presence of tested antagonist. Specific binding, determined under conditions that prevent enzymatic metabolism of ^3 H-LTD4, is the net result of total ^3 H-LTD4 binding minus nonspecific binding determined in the presence of 1-2000 fold excess unlabelled LTD^4. Each assay is done in duplicate and results (Ki values) are typically a mean of several such determinations in individual receptor batches.
The % inhibition by a tested antagonist, relative to control binding (vehicle alone), is expressed as a fraction of log[antagonist] concentration (in molar units) and the half-maximal inhibition (IC50) determined by computerized non-linear least-square analysis. The binding constant (Ki) is then calculated from IC50 by the Cheng-Prusoff equation: [formula] where [L] is ^3 H-LTD4 concentraton and Kd is the affinity constant of LTD4 to this receptor, determined separately for each batch. (Biochem. Pharmacol. 22: 3099-3108, 1973).

CCCN1CCC(Cc2ccc3c(c2)c(Cc2ccc(C(=O)NS(=O)(=O)c4ccccc4C)cc2OC)cn3CCC)C1=O (stereo not shown) [Example 1, 3-Methoxy-N-(2-methylphenylsulfonyl)-4-[1-propyl-5-(1-propyl-2-oxopyrrolidin-3-ylmethyl)indol-3-ylmethyl]benzamide] gave a Ki of 1 nM.
